Assay results: ChEMBL document CHEMBL4308841, “Synthesis, in vitro antiproliferative activity, and kinase inhibitory effects of pyrazole-containing diarylureas and diarylamides” (Eur J Med Chem, 2018)

Legend:
NCI-H226 [1] = experiment: Growth inhibition of human NCI-H226 cells incubated for 48 hrs by sulforhodamine B assay; type: functional, cell-based; details: NCI-H226, 48 h
HCT-116 = experiment: Growth inhibition of human HCT116 cells incubated for 48 hrs by sulforhodamine B assay; type: functional, cell-based; details: HCT-116, 48 h
KM12 [2] = experiment: Growth inhibition of human KM12 cells incubated for 48 hrs by sulforhodamine B assay; type: functional, cell-based; details: KM12, 48 h
SF-268 = experiment: Growth inhibition of human SF268 cells incubated for 48 hrs by sulforhodamine B assay; type: functional, cell-based; details: SF-268, 48 h
UACC-62 [3] = experiment: Growth inhibition of human UACC62 cells incubated for 48 hrs by sulforhodamine B assay; type: functional, cell-based; details: UACC-62, 48 h
ACHN = experiment: Growth inhibition of human ACHN cells incubated for 48 hrs by sulforhodamine B assay; type: functional, cell-based
CAKI-1 = experiment: Growth inhibition of human Caki1 cells incubated for 48 hrs by sulforhodamine B assay; type: functional, cell-based; details: CAKI-1, 48 h
DU-145 = experiment: Growth inhibition of human DU145 cells incubated for 48 hrs by sulforhodamine B assay; type: functional, cell-based; details: DU-145, 48 h
NCI-H23 [4] = experiment: Growth inhibition of human NCI-H23 cells assessed as cell growth at 0.01 uM incubated for 48 hrs by sulforhodamine B assay relative to control; type: functional; details: NCI-H23, 48 h, read-out: Activity
SNB-75 = experiment: Growth inhibition of human SNB75 cells assessed as cell growth at 0.01 uM incubated for 48 hrs by sulforhodamine B assay relative to control; type: functional; details: SNB-75, 48 h, read-out: Activity
SK-MEL-5 = experiment: Growth inhibition of human SK-MEL-5 cells assessed as cell growth at 0.01 uM incubated for 48 hrs by sulforhodamine B assay relative to control; type: functional; details: SK-MEL-5, 48 h, read-out: Activity
MDA-MB-468 = experiment: Growth inhibition of human MDA-MB-468 cells assessed as cell growth at 0.01 uM incubated for 48 hrs by sulforhodamine B assay relative to control; type: functional; details: MDA-MB-468, 48 h, read-out: Activity
NCI-H226 [5] = experiment: Growth inhibition of human NCI-H226 cells assessed as cell growth at 0.1 uM incubated for 48 hrs by sulforhodamine B assay relative to control; type: functional; details: NCI-H226, 48 h, read-out: Activity
NCI-H23 [6] = experiment: Growth inhibition of human NCI-H23 cells assessed as cell growth at 0.1 uM incubated for 48 hrs by sulforhodamine B assay relative to control; type: functional; details: NCI-H23, 48 h, read-out: Activity
U-251 = experiment: Growth inhibition of human U251 cells assessed as cell growth at 0.1 uM incubated for 48 hrs by sulforhodamine B assay relative to control; type: functional; details: U-251, 48 h, read-out: Activity
SK-MEL-28 = experiment: Growth inhibition of human SK-MEL-28 cells assessed as cell growth at 0.1 uM incubated for 48 hrs by sulforhodamine B assay relative to control; type: functional; details: SK-MEL-28, 48 h, read-out: Activity
OVCAR-8 = experiment: Growth inhibition of human OVCAR8 cells assessed as cell growth at 0.1 uM incubated for 48 hrs by sulforhodamine B assay relative to control; type: functional; details: OVCAR-8, 48 h, read-out: Activity
SNB-19 = experiment: Growth inhibition of human SNB19 cells assessed as cell growth at 1 uM incubated for 48 hrs by sulforhodamine B assay relative to control; type: functional; details: SNB-19, 48 h, read-out: Activity
UACC-62 [7] = experiment: Growth inhibition of human UACC62 cells assessed as cell growth at 1 uM incubated for 48 hrs by sulforhodamine B assay relative to control; type: functional; details: UACC-62, 48 h, read-out: Activity
OVCAR-4 = experiment: Growth inhibition of human OVCAR4 cells assessed as cell growth at 1 uM incubated for 48 hrs by sulforhodamine B assay relative to control; type: functional; details: OVCAR-4, 48 h, read-out: Activity
RXF 393 = experiment: Growth inhibition of human RXF393 cells assessed as cell growth at 1 uM incubated for 48 hrs by sulforhodamine B assay relative to control; type: functional; details: RXF 393, 48 h, read-out: Activity
SN12C = experiment: Growth inhibition of human SN12C cells assessed as cell growth at 1 uM incubated for 48 hrs by sulforhodamine B assay relative to control; type: functional; details: read-out: Activity
RPMI-8226 = experiment: Growth inhibition of human RPMI8226 cells assessed as cell growth at 100 uM incubated for 48 hrs by sulforhodamine B assay relative to control; type: functional; details: RPMI-8226, 48 h, read-out: Activity
SR = experiment: Growth inhibition of human SR cells assessed as cell growth at 100 uM incubated for 48 hrs by sulforhodamine B assay relative to control; type: functional; details: read-out: Activity
KM12 [8] = experiment: Growth inhibition of human KM12 cells assessed as cell growth at 100 uM incubated for 48 hrs by sulforhodamine B assay relative to control; type: functional; details: KM12, 48 h, read-out: Activity
UACC-62 [9] = experiment: Growth inhibition of human UACC62 cells assessed as cell growth at 100 uM incubated for 48 hrs by sulforhodamine B assay relative to control; type: functional; details: UACC-62, 48 h, read-out: Activity
A498 = experiment: Growth inhibition of human A498 cells assessed as cell growth at 100 uM incubated for 48 hrs by sulforhodamine B assay relative to control; type: functional; details: A498, 48 h, read-out: Activity
PC-3 = experiment: Growth inhibition of human PC3 cells assessed as cell growth at 100 uM incubated for 48 hrs by sulforhodamine B assay relative to control; type: functional; details: PC-3, 48 h, read-out: Activity
[10] = read-out: LC50 (the source's name)
[11] = read-out: pLC50 (the source's name) (converted)

Q: `COc1cc(Cl)cc(-c2nn(-c3cccc(NC(=O)Nc4cccc(C(F)(F)F)c4)c3)cc2-c2ccncc2)c1` was tested. Which GI50 (NCI-H226 [1]; read-out: GI50) did it give?
A: 2.26 µM

Q: What about the LC50 (NCI-H226 [1]; read-out: LC50) of the same compound?
A: > 100 µM

Q: What about the TGI (NCI-H226 [1]; read-out: TGI) of the same compound?
A: 11.5 µM

Q: What about the GI50 (NCI-H226 [1]; read-out: pGI50 (converted)) of the same compound?
A: 2.24 µM

Q: What about the LC50 (NCI-H226 [1]; read-out: pLC50 (converted)) of the same compound?
A: > 100 µM

Q: What about the TGI (NCI-H226 [1]; read-out: pTGI (converted)) of the same compound?
A: 28.8 µM

Q: What about the IC50 (HCT-116) of the same compound?
A: 0.75 µM

Q: And the GI50 (HCT-116; read-out: GI50)?
A: 0.754 µM

Q: What about the CC50 (HCT-116; [10]) of the same compound?
A: 35.7 µM

Q: And the TGI (HCT-116; read-out: TGI)?
A: 75.1 µM

Q: What about the GI50 (HCT-116; read-out: pGI50 (converted)) of the same compound?
A: 0.759 µM

Q: What about the CC50 (HCT-116; [11]) of the same compound?
A: 38.9 µM

Q: What about the TGI (HCT-116; read-out: pTGI (converted)) of the same compound?
A: 7.59 µM

Q: And the GI50 (KM12 [2]; read-out: GI50)?
A: 0.611 µM

Q: And the CC50 (KM12 [2]; [10])?
A: > 100 µM

Q: And the TGI (KM12 [2]; read-out: TGI)?
A: 47 µM

Q: And the GI50 (KM12 [2]; read-out: pGI50 (converted))?
A: 6.17 µM

Q: What about the CC50 (KM12 [2]; [11]) of the same compound?
A: > 100 µM

Q: And the TGI (KM12 [2]; read-out: pTGI (converted))?
A: 4.79 µM

Q: And the GI50 (SF-268; read-out: GI50)?
A: 2.56 µM

Q: And the CC50 (SF-268; [10])?
A: > 100 µM

Q: What about the TGI (SF-268; read-out: TGI) of the same compound?
A: 17.1 µM

Q: And the GI50 (SF-268; read-out: pGI50 (converted))?
A: 2.57 µM

Q: What about the CC50 (SF-268; [11]) of the same compound?
A: > 100 µM

Q: What about the TGI (SF-268; read-out: pTGI (converted)) of the same compound?
A: 17 µM

Q: What about the IC50 (UACC-62 [3]) of the same compound?
A: 1.47 µM

Q: What about the GI50 (UACC-62 [3]; read-out: GI50) of the same compound?
A: 1.47 µM

Q: And the CC50 (UACC-62 [3]; [10])?
A: 10.2 µM

Q: And the TGI (UACC-62 [3]; read-out: TGI)?
A: 33.4 µM

Q: What about the GI50 (UACC-62 [3]; read-out: pGI50 (converted)) of the same compound?
A: 1.48 µM

Q: What about the CC50 (UACC-62 [3]; [11]) of the same compound?
A: 10.2 µM

Q: And the TGI (UACC-62 [3]; read-out: pTGI (converted))?
A: 3.8 µM

Q: And the GI50 (ACHN; read-out: GI50)?
A: 1.72 µM

Q: What about the CC50 (ACHN; [10]) of the same compound?
A: > 100 µM

Q: What about the TGI (ACHN; read-out: TGI) of the same compound?
A: 15.2 µM

Q: What about the GI50 (ACHN; read-out: pGI50 (converted)) of the same compound?
A: 1.7 µM

Q: What about the CC50 (ACHN; [11]) of the same compound?
A: > 100 µM

Q: And the TGI (ACHN; read-out: pTGI (converted))?
A: 16.2 µM

Q: And the GI50 (CAKI-1; read-out: GI50)?
A: 1.29 µM

Q: What about the CC50 (CAKI-1; [10]) of the same compound?
A: > 100 µM

Q: What about the TGI (CAKI-1; read-out: TGI) of the same compound?
A: 52 µM

Q: And the GI50 (CAKI-1; read-out: pGI50 (converted))?
A: 1.29 µM

Q: What about the CC50 (CAKI-1; [11]) of the same compound?
A: > 100 µM

Q: What about the TGI (CAKI-1; read-out: pTGI (converted)) of the same compound?
A: 8.91 µM

Q: And the GI50 (DU-145; read-out: GI50)?
A: 2.61 µM

Q: And the CC50 (DU-145; [10])?
A: > 100 µM

Q: What about the TGI (DU-145; read-out: TGI) of the same compound?
A: > 100 µM

Q: And the GI50 (DU-145; read-out: pGI50 (converted))?
A: 2.63 µM

Q: And the CC50 (DU-145; [11])?
A: > 100 µM

Q: And the TGI (DU-145; read-out: pTGI (converted))?
A: > 100 µM

Q: What about the growth at 0.01 µM (NCI-H23 [4]) of the same compound?
A: 97%

Q: And the growth at 0.01 µM (SNB-75)?
A: 83%

Q: What about the growth at 0.01 µM (SK-MEL-5) of the same compound?
A: 96%

Q: And the growth at 0.01 µM (MDA-MB-468)?
A: 94%

Q: And the growth at 0.1 µM (NCI-H226 [5])?
A: 95%

Q: And the growth at 0.1 µM (NCI-H23 [6])?
A: 90%

Q: What about the growth at 0.1 µM (U-251) of the same compound?
A: 93%

Q: And the growth at 0.1 µM (SK-MEL-28)?
A: 100%

Q: And the growth at 0.1 µM (OVCAR-8)?
A: 99%

Q: What about the growth at 1 µM (SNB-19) of the same compound?
A: 77%

Q: What about the growth at 1 µM (UACC-62 [7]) of the same compound?
A: 70%

Q: And the growth at 1 µM (OVCAR-4)?
A: 71%

Q: And the growth at 1 µM (RXF 393)?
A: 68%

Q: What about the growth at 1 µM (SN12C) of the same compound?
A: 59%

Q: And the growth at 100 µM (RPMI-8226)?
A: -43%

Q: And the growth at 100 µM (SR)?
A: -30%

Q: What about the growth at 100 µM (KM12 [8]) of the same compound?
A: -48%

Q: And the growth at 100 µM (UACC-62 [9])?
A: -82%

Q: What about the growth at 100 µM (A498) of the same compound?
A: -6%

Q: And the growth at 100 µM (PC-3)?
A: -35%
